Laboratory results taken from US20190256929A1, “PHARMACODYNAMIC BIOMARKERS FOR PERSONALIZED CANCER CARE USING EPIGENETIC MODIFYING AGENTS” (ORYZON GENOMICS, S.A., priority 2016, published 2019).

Columns and labels:
PDX model FHSC04 = test: RNA-seq PD gene change in SCLC PDX model FHSC04 treated in vivo; design: species or system mice; settings: 400 μg/kg oral gavage
Experimental: To confirm the results obtained for small cell lung cancer cell line xenograft, changes in PD markers Notch1, ASCL1 and GRP were evaluated in PDX model FHSC04 treated in vivo with LSD1i (trans)-N1-((1R,2S)-2-phenylcyclopropyl)cyclohexane-1,4-diamine (FIG. 13). Eight to twelve-week-old NOD scid gamma mice were implanted with 1.0×10^6 disaggregated cells from PDX model FHSC04 in 100 μl of 1:1 HITES media:Matrigel. […] Once tumor volume reached 150-200 mm^3, mice were randomly assigned to treatment groups for 21-35 days, depending on the kinetics of growth in the given model. Animals were treated with saline or with 400 μg/kg ((trans)-N1-((1R,2S)-2-phenylcyclopropyl)cyclohexane-1,4-diamine, delivered by oral gavage once every 7 days, dissolved to 10 ml/kg with 0.9% saline solution. For the 10-day treatment in FHSC04 used for molecular analyses, an additional dose of 400 μg/kg (trans)-N1-((1R,2S)-2-phenylcyclopropyl)cyclohexane-1,4-diamine was given 4 hours before tissue collection.
For RNA-seq analyses using PDX samples in vivo, the Ultra RNA Library Prep Kit for Illumina (New England BioLabs; catalog E753L) was used to generate libraries from total RNA. All library preparation was conducted according to the manufacturer's instructions. Single-end sequencing (50 bp) was performed using an Illumina HiSeq 2500, reads of low quality were filtered prior to alignment to the hg19 genome build using TopHat v2.0.12 (Trapnell et al. Bioinformatics 2009 May 1; 25(9): 1105-1111). In vivo PDX samples were also aligned to mm9, where the mouse and human alignments from a given sample were compared, discarding from downstream analysis those reads which had fewer mismatches to mouse, relative to human. Cuffdiff v2.1.1 (Trapnell et al. Nat Biotechnol. 2013 January; 31(1):46-53) was used to generate fragment per kilobase per million (FPKM) expression values. Counts (CPM) were generated from TopHat alignments using the Python package HTSeq v0.6.1 (Anders et al. Bioinformatics. 2015 Jan. 15; 31(2): 166-169) using the “intersection-strict” overlap mode. […]

SCLC 510A xenografts = test: RNA-seq PD gene change in H510A SCLC xenograft mouse model; type: in vivo, mice; settings: for ASCL1 Log2FC / GRP Log2FC / NOTCH1 Log2FC: vs vehicle
Experimental: Female athymic nude mice, approximately 7-8-week old animals, were injected with 5 million H510A cells per 50 μL PBS and 50 μL Matrigel (BD Bioscience) into the right flank of each animal. After tumor growth reached 200-300 mm3, animals were distributed in three homogeneous groups with similar mean tumor volume and SD. Animals were treated with vehicle, 20 μg/Kg and 40 μg/Kg of (trans)-N1-((1R,2S)-2-phenylcyclopropyl)cyclohexane-1,4-diamine for 3 weeks according to the 5 days on/2 days off schedule.
Mice were sacrificed at day 35 at 1, 6 and 24 hours post last injection. Blood was extracted in Microvette® (Sarstedt) tubes, centrifuged on a bench-top centrifuge at 2000 rpm for 15 min at 4 C. Supernatant was stored at −80° C. Tumors were removed and divided in 3 parts: ⅓ was immersed in RNA-Later and snap frozen for subsequent analysis. Frozen material was stored at −80° C. before shipment.
Whole transcriptomic RNA sequencing procedure is identical to that as described in Example 1. Raw RNASeq reads were aligned to the mouse and the human transcriptome using GSNAP and were then analyzed. Reads mapped to both organisms were filtered out and only reads that were uniquely aligned to human or mouse were used to profile the respective genes. The log 2 fold change of three candidate PD markers between (trans)-N1-((1R,2S)-2-phenylcyclopropyl)cyclohexane-1,4-diamine treated and vehicle treated samples were calculated using DESeq2 package (Love et al.).

[1] = tested on: patient derived xenograft (PDX) small cell lung cancer models, ex vivo cultures; test: qRT-PCR of PD markers Notch1 and ASCL1 in ex vivo cultures of SCLC patient derived xenograft (PDX) models; type: cell-based, human; settings: 1 nM, 120 hours
Experimental: To confirm the results obtained for the panel for small cell lung cancer cell lines, changes in PD markers Notch1 and ASCL1 were evaluated in a panel of patient derived xenograft (PDX) small cell lung cancer models. The initiation and characterization of PDX models LX48, LX108, LX110, LX33 have been described previously (Hann, C. L., et al. 2008, Cancer Research. 68, 2321-2328; Poirier et al. (2013). J. Natl. Cancer Inst. 105, 1059-1065; Leong et al. PLoS One. 2014; 9:e106862). PDX models, FHSC04 and FHSC14 were generated from blood samples obtained from patients with extensive-stage SCLC, following the methodology described by the Dive lab (Hodgkinson et al. 2014 Nat Med August 20(8), 897-903). Ex vivo cultures were treated with 1 nM (trans)-N1-((1R,2S)-2-Phenylcyclopropyl)cyclohexane-1,4-diamine in 96 well plates (10,000 cells/well) for 120 hours. RNA was extracted in TRIzol (Invitrogen) and isolated according to the manufacturer's protocol. cDNA was generated using the iScript synthesis kit (Bio-Rad) according to the manufacturer's protocol. qPCR experiments were run on a Biorad qPCR instrument (CFX384). Data were normalized to GAPDH. FIG. 12 contains the results of the qRT-PCR using the following primers.

[2] = 20 μg/kg, 1 h post last injection
[3] = 20 μg/kg, 6 h post last injection
[4] = 20 μg/kg, 24 h post last injection
[5] = 40 μg/kg, 1 h post last injection
[6] = 40 μg/kg, 6 h post last injection
[7] = 40 μg/kg, 24 h post last injection

N[C@H]1CC[C@H](N[C@@H]2C[C@H]2c2ccccc2)CC1 [RG6016, (trans)-N1-((1R,2S)-2-phenylcyclopropyl)cyclohexane-1,4-diamine]
ASCL1 transcript regulation (FIG. 13) (PDX model FHSC04): down regulation
GRP transcript regulation (FIG. 13) (PDX model FHSC04): down regulation
NOTCH1 transcript regulation (FIG. 13) (PDX model FHSC04): up regulation
ASCL1 Log2FC (SCLC 510A xenografts; [2]): −0.525
GRP Log2FC (SCLC 510A xenografts; [2]): −1.607
NOTCH1 Log2FC (SCLC 510A xenografts; [2]): 1.947
ASCL1 Log2FC (SCLC 510A xenografts; [3]): −0.545
GRP Log2FC (SCLC 510A xenografts; [3]): −0.794
NOTCH1 Log2FC (SCLC 510A xenografts; [3]): 1.388
ASCL1 Log2FC (SCLC 510A xenografts; [4]): −0.472
GRP Log2FC (SCLC 510A xenografts; [4]): −1.205
NOTCH1 Log2FC (SCLC 510A xenografts; [4]): 1.679
ASCL1 Log2FC (SCLC 510A xenografts; [5]): −0.783
GRP Log2FC (SCLC 510A xenografts; [5]): −1.75
NOTCH1 Log2FC (SCLC 510A xenografts; [5]): 2.727
ASCL1 Log2FC (SCLC 510A xenografts; [6]): −0.825
GRP Log2FC (SCLC 510A xenografts; [6]): −1.421
NOTCH1 Log2FC (SCLC 510A xenografts; [6]): 2.321
ASCL1 Log2FC (SCLC 510A xenografts; [7]): −1.286
GRP Log2FC (SCLC 510A xenografts; [7]): −2.742
NOTCH1 Log2FC (SCLC 510A xenografts; [7]): 3.423
ASCL1 transcript down regulation (FIG. 9) (SCLC 510A xenografts; SCLC 510A xenografts): dose and time dependent
GRP transcript down regulation (FIG. 10) (SCLC 510A xenografts; SCLC 510A xenografts): dose and time dependent
NOTCH1 transcript up regulation (FIG. 11) (SCLC 510A xenografts; SCLC 510A xenografts): dose and time dependent
Regulation of ASCL1 (FIG. 12) [1]: down
Regulation of NOTCH1 (FIG. 12) [1]: up
